This is an account of results in publication PMC3382171 (PLoS ONE, 2012).

Each structure is given as a SMILES string.

Test in all cases: biochemical
What all share (parameters): University of Dundee kinase panel, percent inhibition of phosphorylation at 1 uM RAFi, ATP at Km
What all share (details): read-out: Dundee KSS %inh at 1 uM

One assay concerns the target T1, CAMKKB (Homo sapiens, UniProt Q96RR4).
T1 construct: gene CAMKK2
As for the experimental part:
(§1) The METi and RAFi were screened against kinase panels (SelectScreen, Invitrogen; University of Dundee, Division of Signal Transduction Therapy, UK; Upstate Biotechnology/Millipore, Billerica, MA). In these selectivity assays the concentration of ATP was set to the Km value of ATP for each kinase tested to allow for a relative potency comparison between the various kinases. The compounds were tested at 1 µM final concentration. […] Supplementary file pone.0039653.s002.pdf: Figure S2 Kinase Selectivity Screen of RAFi. (A) Kinase selectivity screen (KSS) performed at University of Dundee (Division of Signal Transduction Therapy). Values in % inhibition of phosphorylation given 1 µM of RAFi compared to control. (B) KSS performed at Invitrogen (Selectscreen Service) compared to control. Values in % inhibition of phosphorylation given 1 µM of RAFi. (C) Cell based dose response kinase inhibition of indicated kinases by RAFi. (PDF) Click here for additional data file.

Another assay has as its target T2, CHK1 (Homo sapiens, UniProt O14757).
T2 construct: gene CHEK1
As for the experimental part:
as §1

The next assay concerns the target T3, CaMK1a (Homo sapiens, UniProt Q14012).
T3 construct: gene CAMK1
As for the experimental part:
as §1

The next assay deals with T4, DYRK2 (Homo sapiens, UniProt Q92630).
T4 sequence (Q92630 1-601): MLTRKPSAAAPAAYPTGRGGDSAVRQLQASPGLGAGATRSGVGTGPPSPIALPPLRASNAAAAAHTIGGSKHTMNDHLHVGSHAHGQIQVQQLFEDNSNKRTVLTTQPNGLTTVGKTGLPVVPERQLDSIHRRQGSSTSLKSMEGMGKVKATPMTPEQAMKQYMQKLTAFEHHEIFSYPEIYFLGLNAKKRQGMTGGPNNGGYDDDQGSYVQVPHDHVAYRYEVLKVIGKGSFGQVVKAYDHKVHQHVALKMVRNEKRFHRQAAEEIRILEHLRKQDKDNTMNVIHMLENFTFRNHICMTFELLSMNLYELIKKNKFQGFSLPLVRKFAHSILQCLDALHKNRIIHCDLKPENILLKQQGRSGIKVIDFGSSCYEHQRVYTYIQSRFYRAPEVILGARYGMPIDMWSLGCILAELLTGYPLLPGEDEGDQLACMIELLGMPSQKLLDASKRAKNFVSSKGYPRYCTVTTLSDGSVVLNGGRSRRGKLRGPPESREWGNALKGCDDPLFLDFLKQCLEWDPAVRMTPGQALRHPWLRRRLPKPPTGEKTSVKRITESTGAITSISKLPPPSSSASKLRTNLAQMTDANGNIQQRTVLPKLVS
As for the experimental part: as §1

For the next assay, the target named is T5, EEF-2 kinase (Homo sapiens, UniProt O00418).
T5 construct: gene EEF2K
As for the experimental part:
as §1

Another assay deals with T6, ERK7 (Homo sapiens, UniProt Q8TD08).
T6 construct: gene MAPK15
T6 sequence (Q8TD08 whole entry): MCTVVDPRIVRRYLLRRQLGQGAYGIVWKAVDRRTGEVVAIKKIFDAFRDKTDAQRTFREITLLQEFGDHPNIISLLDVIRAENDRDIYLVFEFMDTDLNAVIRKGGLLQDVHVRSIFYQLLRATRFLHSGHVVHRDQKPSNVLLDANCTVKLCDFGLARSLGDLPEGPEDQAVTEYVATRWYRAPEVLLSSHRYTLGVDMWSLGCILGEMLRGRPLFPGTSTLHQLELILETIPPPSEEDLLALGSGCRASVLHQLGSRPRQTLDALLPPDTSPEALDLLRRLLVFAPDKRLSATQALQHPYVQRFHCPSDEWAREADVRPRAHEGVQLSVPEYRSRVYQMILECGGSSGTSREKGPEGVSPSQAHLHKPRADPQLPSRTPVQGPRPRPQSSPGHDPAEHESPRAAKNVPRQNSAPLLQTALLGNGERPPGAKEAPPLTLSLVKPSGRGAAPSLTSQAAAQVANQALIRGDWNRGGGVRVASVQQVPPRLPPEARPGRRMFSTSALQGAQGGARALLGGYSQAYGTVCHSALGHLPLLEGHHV
As for the experimental part:
as §1

In the next assay the target is MARK3 (Homo sapiens, UniProt P27448). As for the experimental part: as §1
The target in another assay is T7, MSK1 (Homo sapiens, UniProt O75582).
T7 construct: gene RPS6KA5
As for the experimental part: as §1

A further assay has as its target T8, PDK1 (Homo sapiens, UniProt O15530).
T8 construct: gene PDPK1
As for the experimental part:
as §1

The target of the next assay is PIM1 (Homo sapiens, UniProt P11309). As for the experimental part: as §1
PIM1, sequence (P11309 whole entry): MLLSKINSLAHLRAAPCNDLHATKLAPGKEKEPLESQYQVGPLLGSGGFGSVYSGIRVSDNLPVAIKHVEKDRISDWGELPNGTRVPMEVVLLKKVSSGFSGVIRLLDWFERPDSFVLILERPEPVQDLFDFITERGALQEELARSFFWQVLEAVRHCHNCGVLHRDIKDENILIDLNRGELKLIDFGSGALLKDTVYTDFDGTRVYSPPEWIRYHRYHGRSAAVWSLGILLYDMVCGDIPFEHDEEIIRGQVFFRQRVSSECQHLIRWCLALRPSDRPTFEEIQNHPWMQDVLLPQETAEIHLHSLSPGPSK
Another assay addresses T9, RSK2 (Homo sapiens, UniProt P51812).
T9 construct: gene RPS6KA3
As for the experimental part: as §1

In a further assay the target is SRPK1 (Homo sapiens, UniProt Q96SB4). As for the experimental part:
as §1

Another assay deals with T10, p38g (Homo sapiens, UniProt P53778).
T10 construct: gene MAPK12
T10 sequence (P53778 whole entry): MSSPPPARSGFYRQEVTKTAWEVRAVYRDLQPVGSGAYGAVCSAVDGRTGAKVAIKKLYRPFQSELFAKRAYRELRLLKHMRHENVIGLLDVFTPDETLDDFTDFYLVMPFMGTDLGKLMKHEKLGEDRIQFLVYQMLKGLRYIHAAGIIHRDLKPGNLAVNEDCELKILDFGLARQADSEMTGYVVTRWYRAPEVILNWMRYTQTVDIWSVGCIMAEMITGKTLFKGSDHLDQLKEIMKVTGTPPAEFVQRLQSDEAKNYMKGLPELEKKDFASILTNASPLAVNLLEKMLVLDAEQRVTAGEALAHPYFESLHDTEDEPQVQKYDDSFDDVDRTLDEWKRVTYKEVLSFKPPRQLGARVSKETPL
As for the experimental part: as §1

The next assay has as its target T11, rabbit MEK1 (Oryctolagus cuniculus, UniProt P29678).
T11 construct: gene MAP2K1
As for the experimental part:
as §1

The target in another assay is T12, rat AMPKa2 (Rattus norvegicus, UniProt Q09137).
T12 construct: gene Prkaa2
T12 sequence (Q09137 whole entry): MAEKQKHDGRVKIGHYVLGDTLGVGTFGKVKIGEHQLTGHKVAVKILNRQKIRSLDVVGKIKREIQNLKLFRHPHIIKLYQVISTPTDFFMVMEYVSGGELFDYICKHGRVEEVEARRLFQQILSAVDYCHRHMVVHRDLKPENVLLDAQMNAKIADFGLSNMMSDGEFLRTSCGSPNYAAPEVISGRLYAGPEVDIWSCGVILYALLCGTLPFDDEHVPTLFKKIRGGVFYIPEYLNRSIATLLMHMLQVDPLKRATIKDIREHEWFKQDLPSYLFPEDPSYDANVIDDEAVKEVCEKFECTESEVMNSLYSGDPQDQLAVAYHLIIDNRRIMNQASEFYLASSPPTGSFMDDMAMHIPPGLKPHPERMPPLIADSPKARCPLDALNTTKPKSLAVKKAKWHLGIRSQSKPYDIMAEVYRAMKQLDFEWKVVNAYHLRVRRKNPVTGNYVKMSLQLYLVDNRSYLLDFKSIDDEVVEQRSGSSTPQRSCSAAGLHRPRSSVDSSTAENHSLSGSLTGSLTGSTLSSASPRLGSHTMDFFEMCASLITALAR
As for the experimental part: as §1

In the next assay the target is T13, rat MNB (Rattus norvegicus, UniProt Q63470).
T13 construct: gene Dyrk1a
As for the experimental part: as §1

T1 sequence (Q96RR4 whole entry): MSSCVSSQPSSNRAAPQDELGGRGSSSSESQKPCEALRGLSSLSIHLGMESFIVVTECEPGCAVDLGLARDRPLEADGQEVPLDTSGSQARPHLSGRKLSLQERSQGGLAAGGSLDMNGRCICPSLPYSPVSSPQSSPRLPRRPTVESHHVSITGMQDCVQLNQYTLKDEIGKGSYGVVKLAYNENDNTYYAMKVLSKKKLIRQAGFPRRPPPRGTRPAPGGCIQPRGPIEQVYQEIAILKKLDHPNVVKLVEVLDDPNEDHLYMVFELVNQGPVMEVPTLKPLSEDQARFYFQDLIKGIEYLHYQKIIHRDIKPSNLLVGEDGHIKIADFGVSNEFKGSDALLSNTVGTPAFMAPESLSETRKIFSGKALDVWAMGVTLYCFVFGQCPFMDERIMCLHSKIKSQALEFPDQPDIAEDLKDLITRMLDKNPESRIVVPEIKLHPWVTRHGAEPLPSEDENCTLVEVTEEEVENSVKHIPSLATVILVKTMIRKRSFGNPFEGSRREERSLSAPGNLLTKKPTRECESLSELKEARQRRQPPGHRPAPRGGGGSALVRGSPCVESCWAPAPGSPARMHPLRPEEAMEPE
T3 sequence (Q14012 whole entry): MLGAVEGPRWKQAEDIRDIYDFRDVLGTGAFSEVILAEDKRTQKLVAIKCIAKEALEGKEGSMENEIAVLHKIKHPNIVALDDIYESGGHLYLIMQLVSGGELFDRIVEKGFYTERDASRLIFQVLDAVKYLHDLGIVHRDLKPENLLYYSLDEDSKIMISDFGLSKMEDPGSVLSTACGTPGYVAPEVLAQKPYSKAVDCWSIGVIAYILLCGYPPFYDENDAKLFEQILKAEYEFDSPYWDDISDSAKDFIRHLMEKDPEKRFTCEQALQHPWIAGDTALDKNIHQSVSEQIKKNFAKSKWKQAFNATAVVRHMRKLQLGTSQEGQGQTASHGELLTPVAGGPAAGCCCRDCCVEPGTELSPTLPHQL
T8 sequence (O15530 whole entry): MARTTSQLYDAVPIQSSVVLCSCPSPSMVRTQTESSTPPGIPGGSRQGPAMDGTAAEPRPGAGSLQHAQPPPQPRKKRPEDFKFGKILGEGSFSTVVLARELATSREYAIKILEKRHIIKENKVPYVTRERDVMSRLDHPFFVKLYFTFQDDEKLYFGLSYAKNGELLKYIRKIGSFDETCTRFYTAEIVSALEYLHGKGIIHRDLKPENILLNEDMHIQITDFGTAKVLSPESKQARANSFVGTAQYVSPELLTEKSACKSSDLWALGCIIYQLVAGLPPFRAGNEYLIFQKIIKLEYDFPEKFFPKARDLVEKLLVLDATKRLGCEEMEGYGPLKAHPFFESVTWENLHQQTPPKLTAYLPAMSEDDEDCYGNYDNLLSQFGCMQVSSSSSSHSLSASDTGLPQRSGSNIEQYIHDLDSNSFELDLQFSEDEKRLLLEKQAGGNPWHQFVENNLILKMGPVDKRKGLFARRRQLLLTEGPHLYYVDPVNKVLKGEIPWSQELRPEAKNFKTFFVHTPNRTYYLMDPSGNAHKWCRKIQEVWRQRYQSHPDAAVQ
SRPK1, sequence (Q96SB4 whole entry): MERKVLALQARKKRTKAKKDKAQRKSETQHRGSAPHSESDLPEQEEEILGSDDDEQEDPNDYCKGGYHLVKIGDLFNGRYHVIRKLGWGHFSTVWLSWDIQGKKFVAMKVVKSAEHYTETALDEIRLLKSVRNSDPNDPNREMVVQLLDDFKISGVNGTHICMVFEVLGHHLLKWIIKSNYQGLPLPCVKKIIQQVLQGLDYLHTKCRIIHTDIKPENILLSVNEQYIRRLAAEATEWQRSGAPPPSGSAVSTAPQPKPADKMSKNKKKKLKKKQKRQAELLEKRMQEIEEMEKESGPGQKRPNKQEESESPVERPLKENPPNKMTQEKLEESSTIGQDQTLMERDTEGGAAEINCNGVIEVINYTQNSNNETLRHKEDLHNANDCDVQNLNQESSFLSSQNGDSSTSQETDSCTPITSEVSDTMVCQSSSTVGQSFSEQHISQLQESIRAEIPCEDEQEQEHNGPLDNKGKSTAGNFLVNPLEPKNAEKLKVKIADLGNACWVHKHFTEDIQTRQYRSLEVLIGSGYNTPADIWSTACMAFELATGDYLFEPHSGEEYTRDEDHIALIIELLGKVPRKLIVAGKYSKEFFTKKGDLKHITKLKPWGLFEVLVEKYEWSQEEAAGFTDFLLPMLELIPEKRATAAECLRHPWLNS
T11 sequence (P29678 whole entry): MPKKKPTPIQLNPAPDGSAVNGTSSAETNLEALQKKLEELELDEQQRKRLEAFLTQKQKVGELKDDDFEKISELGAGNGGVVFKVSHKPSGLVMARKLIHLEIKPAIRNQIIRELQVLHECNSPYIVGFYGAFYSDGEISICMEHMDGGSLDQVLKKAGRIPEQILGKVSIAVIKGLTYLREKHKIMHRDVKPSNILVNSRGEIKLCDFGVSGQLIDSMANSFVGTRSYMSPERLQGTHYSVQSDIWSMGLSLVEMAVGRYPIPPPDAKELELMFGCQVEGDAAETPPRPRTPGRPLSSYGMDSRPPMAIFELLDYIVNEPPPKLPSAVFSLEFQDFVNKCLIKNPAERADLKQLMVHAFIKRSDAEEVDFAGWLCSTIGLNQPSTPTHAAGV
T2 sequence (O14757 whole entry): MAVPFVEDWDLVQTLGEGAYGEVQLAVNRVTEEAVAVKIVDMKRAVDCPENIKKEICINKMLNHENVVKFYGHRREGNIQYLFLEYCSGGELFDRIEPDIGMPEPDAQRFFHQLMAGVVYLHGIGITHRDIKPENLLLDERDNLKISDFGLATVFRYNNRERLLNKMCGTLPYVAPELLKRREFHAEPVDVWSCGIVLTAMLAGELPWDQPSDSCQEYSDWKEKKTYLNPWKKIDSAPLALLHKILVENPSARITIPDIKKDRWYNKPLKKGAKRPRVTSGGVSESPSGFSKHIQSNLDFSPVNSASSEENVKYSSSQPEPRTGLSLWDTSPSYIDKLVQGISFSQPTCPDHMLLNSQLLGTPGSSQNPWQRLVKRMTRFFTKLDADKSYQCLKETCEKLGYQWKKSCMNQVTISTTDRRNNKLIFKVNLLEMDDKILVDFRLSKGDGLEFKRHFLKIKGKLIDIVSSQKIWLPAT

Take `N#CCCNc1nccc(-c2cn(CC(F)F)nc2-c2cnc3[nH]ccc3c2)n1` [RAFi, PF-04880594]: the inhibition at 1 µM at CAMKKB was 16%; at CHK1 it was 2%; on CaMK1a, 18%; at DYRK2 it was 23%; on EEF-2 kinase, 0%; on ERK7 it was 16%. Also, the inhibition at 1 µM on MARK3 was 20%; on MSK1, 14%; on PDK1 it was 11%; at PIM1, 4%; on RSK2, 30%; at SRPK1 it was 5%. Besides, the inhibition at 1 µM at p38g amounted to 4%; at rabbit MEK1, 34%; on rat AMPKa2, 15%; at rat MNB it was 4%.
